Target: T1, Enoyl-[acyl-carrier-protein] reductase [NADPH] FabI (Staphylococcus aureus (strain MRSA252), UniProt Q6GI75)
T1 sequence (Q6GI75 whole entry): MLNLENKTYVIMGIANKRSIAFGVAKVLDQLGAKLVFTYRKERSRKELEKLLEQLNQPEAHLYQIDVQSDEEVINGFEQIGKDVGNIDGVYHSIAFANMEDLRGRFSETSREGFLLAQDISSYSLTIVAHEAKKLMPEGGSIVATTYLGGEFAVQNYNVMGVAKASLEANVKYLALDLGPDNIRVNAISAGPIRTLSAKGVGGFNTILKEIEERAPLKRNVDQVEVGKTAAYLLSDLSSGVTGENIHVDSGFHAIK
Test: Enzyme Inhibition Assay
Conditions: pH 6.5; 30 °C
Method: Assays were carried out in half-area, 96-well microtiter plates. Compounds were evaluated in assay mixtures containing components specific for each enzyme. Inhibitors were varied over the range 0.01-10 uM. The consumption of NAD(P)H was monitored for 20 min at 30 °C by following the change in absorbance at 340 nm. IC50 values were estimated from a fit of the initial velocities to a standard equation.

Row | IC50 | SMILES
1 | 7800 nM | CN1Cc2cc(C(=O)N3CCc4c([nH]c5ccccc45)C3)ccc2NC(CC(=O)O)C1=O (stereo not drawn) [2-(4-methyl-3-oxo-7-{1H,2H,3H,4H,9H-pyrido[3,4-b]indol-2-ylcarbonyl}-2,3,4,5-tetrahydro-1H-1,4-benzodiazepin-2-yl)acetic acid]
2 | 2700 nM | O=C(c1ccccc1)N1CCc2c([nH]c3ccccc23)C1 [2-benzoyl-1H,2H,3H,4H,9H-pyrido[3,4-b]indole]
3 | 420 nM | O=C(c1ccc(O)cc1)N1CCc2c(n(Cc3cccc(O)c3)c3ccccc23)C1 [4-({9-[(3-hydroxyphenyl)methyl]-1H,2H,3H,4H,9H-pyrido[3,4-b]indol-2-yl}carbonyl)phenol]
4 | 1300 nM | O=C(c1ccc(O)cc1)N1CCc2c(n(Cc3ccccc3)c3ccccc23)C1 [4-({9-benzyl-1H,2H,3H,4H,9H-pyrido[3,4-b]indol-2-yl}carbonyl)phenol]
5 | 1400 nM | Cn1c2c(c3ccccc31)CCN(C(=O)c1ccc(O)cc1)C2 [4-({9-methyl-1H,2H,3H,4H,9H-pyrido[3,4-b]indol-2-yl}carbonyl)phenol]
6 | 1400 nM | O=C(c1ccc(O)cc1)N1CCc2c([nH]c3ccccc23)C1 [4-{1H,2H,3H,4H,9H-pyrido[3,4-b]indol-2-ylcarbonyl}phenol]
7 | 9800 nM | COC(=O)Cn1c2c(c3ccccc31)CCN(C(=O)c1ccc(O)cc1)C2 [methyl 2-{2-[(4-hydroxyphenyl)carbonyl]-1H,2H,3H,4H,9H-pyrido[3,4-b]indol-9-yl}acetate]
8 | 4600 nM | COC(=O)CCCCn1c2c(c3ccccc31)CCN(C(=O)c1ccc(O)cc1)C2 [methyl 5-{2-[(4-hydroxyphenyl)carbonyl]-1H,2H,3H,4H,9H-pyrido[3,4-b]indol-9-yl}pentanoate]

From BindingDB's records for doi:10.1016/s0960-894x(01)00405-x (Glaxosmithkline, 2001)
